Data published in US11866443B2, “Method for separating optically active hydroxy cineole derivatives” (BASF Agro B.V., priority 2017, dated 2024).
≈ marks a conversion by molar mass, not a printed value.

Assay: Solubility of racemic and enantiopure hydroxy cineol in different solvents at room temperature
Conditions: for Solubility: room temperature
Description: The solubility of racemic hydroxy cineol and enantiopure hydroxy cineol was checked at room temperature in solvents namely, petroleum ether, n-pentane, n-hexane, n-heptane, iso-octane, cyclohexane and toluene.
The solubility at room temperature was determined by adding under stirring small portions of the substance to 5 mL of solvent until it reached saturation and formation of a no more soluble sediment was observed.

With `CC(C)C12CCC(C)(O1)C(O)C2` (racemic) [Racemate, hydroxy cineol] the Solubility (cyclohexane) was 380 mg/mL (≈ 2230 mM), the Solubility (iso-octane) was 75 mg/mL (≈ 441 mM) and the “solubility of racemate relative to the optical pure hydroxy-cineol” value (n-heptane) was 8 fold. The Solubility (n-heptane) was 80 mg/mL (≈ 470 mM), the Solubility (n-hexane) was 100 mg/mL (≈ 587 mM) and the Solubility (n-pentane) was 150 mg/mL (≈ 881 mM). The “solubility of racemic compound compared with optical pure material” value (non-polar solvents) was “much better soluble”, the Solubility (petroleum ether) was 120 mg/mL (≈ 705 mM) and the Solubility (toluene) was 800 mg/mL (≈ 4700 mM).
